Peptide text beside a SMILES is read from it.
Tests used:
[1] = system: human red blood cells (hRBC); assay: Hemolysis of human red blood cells; type: cell-based; conditions: red cells of human, 1 h
Outline: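 Percent hemolysis is OD540 of peptide-treated supernatant relative to water-lysed cells. Each peptide was tested at 200 μg/mL against 20% (v/v) washed human erythrocytes. Incubation was 1 h at 37 °C, 300 rpm.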

[2] = system: Escherichia coli MCR-1 Af 45; conditions: Mueller-Hinton broth II, 18-20 hours at 35° C.
Outline: (§1)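 Peptides were made up as 1 mg/mL stocks in sterile water. Colonies in 0.85% saline were set to 0.5 McFarland, then diluted in cation-adjusted Mueller-Hinton II broth to about 5×10^5 CFU/mL. Inoculum was combined with two-fold serial peptide dilutions in water containing 0.002% (final) polysorbate 80.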

[3] = system: Escherichia coli ATCC 25922; conditions: ATCC 25922
Outline: as §1

[4] = system: Klebsiella pneumoniae SSI3010; conditions: SSI3010
Outline: as §1

**Q.** Which “Hemolysis at 0.2 g/L” value [1] does the source give for CC[C@H](C)[C@H](NC(=O)[C@@H]1C[C@@H](O)CN1C(=O)[C@@H](N)C(C)C)C(=O)N[C@H](C(=O)N[C@@H](Cc1ccc(O)cc1)C(=O)N[C@@H]1C(=O)N[C@@H](CC(C)C)C(=O)N[C@@H](CCCNC(=N)N)C(=O)N[C@@H](CCN)C(=O)N[C@@H]([C@@H](C)O)C(=O)N[C@H](CCN)C(=O)N[C@@H](CCCCN)C(=O)N[C@H](C(=O)N[C@@H](CCN)C(=O)N[C@@H](CCCNC(=N)N)C(=O)N[C@@H](Cc2ccc(O)cc2)C(=O)O)CSSC1(C)C)[C@@H](C)O [Example 162] (HELM PEPTIDE1{V.[Hyp].I.T.Y.[Pen].L.R.[Dab].T.[NCC[C@@H](N[*:1])C(=O)[*:2]].K.C.[Dab].R.Y}$PEPTIDE1,PEPTIDE1,6:R3-13:R3$$$V2.0) here?
**A.** 0%

**Q.** What about the “Escherichia coli MCR-1 Af 45 MIC” value [2] of the same compound?
**A.** 0.125 mg/L

**Q.** And the “Escherichia coli ATCC 25922 MIC” value [3]?
**A.** 0.25 mg/L

**Q.** What about the “Klebsiella pneumoniae SSI3010 MIC” value [4] of the same compound?
**A.** 0.25 mg/L

**Q.** CC[C@H](C)[C@@H]1NC(=O)[C@@H](NC(=O)[C@H](Cc2ccc(O)cc2)NC(=O)[C@@H](NC(=O)[C@@H](NC(=O)[C@@H]2C[C@@H](O)CN2C(=O)[C@@H](N)C(C)C)[C@@H](C)CC)[C@@H](C)O)C(C)(C)SSC[C@@H](C(=O)N[C@@H](CCN)C(=O)N[C@@H](CCCNC(=N)N)C(=O)N[C@@H](Cc2ccc(O)cc2)C(=O)O)NC(=O)[C@H](CCCCN)NC(=O)[C@@H](CCN)NC(=O)[C@H]([C@@H](C)O)NC(=O)[C@H](CCN)NC(=O)[C@H](CCCNC(=N)N)NC1=O [Example 163] (HELM PEPTIDE1{V.[Hyp].I.T.Y.[Pen].I.R.[Dab].T.[NCC[C@@H](N[*:1])C(=O)[*:2]].K.C.[Dab].R.Y}$PEPTIDE1,PEPTIDE1,6:R3-13:R3$$$V2.0) was tested. Which “Hemolysis at 0.2 g/L” value [1] did it give?
**A.** 0%

**Q.** What about the “Escherichia coli MCR-1 Af 45 MIC” value [2] of the same compound?
**A.** 0.125 mg/L

**Q.** What about the “Escherichia coli ATCC 25922 MIC” value [3] of the same compound?
**A.** 0.125 mg/L

**Q.** What about the “Klebsiella pneumoniae SSI3010 MIC” value [4] of the same compound?
**A.** 0.5 mg/L

**Q.** How did the “Hemolysis at 0.2 g/L” value [1] turn out when CC[C@H](C)[C@H](NC(=O)[C@@H]1C[C@@H](O)CN1C(=O)[C@@H](N)C(C)C)C(=O)N[C@H](C(=O)N[C@@H](Cc1ccc(O)cc1)C(=O)N[C@@H]1C(=O)N[C@@H](CO)C(=O)N[C@@H](CCCNC(=N)N)C(=O)N[C@@H](CCN)C(=O)N[C@@H]([C@@H](C)O)C(=O)N[C@H](CCN)C(=O)N[C@@H](CCCCN)C(=O)N[C@H](C(=O)N[C@@H](CCN)C(=O)N[C@@H](CCCNC(=N)N)C(=O)N[C@@H](Cc2ccc(O)cc2)C(=O)O)CSSC1(C)C)[C@@H](C)O [Example 164] (HELM PEPTIDE1{V.[Hyp].I.T.Y.[Pen].S.R.[Dab].T.[NCC[C@@H](N[*:1])C(=O)[*:2]].K.C.[Dab].R.Y}$PEPTIDE1,PEPTIDE1,6:R3-13:R3$$$V2.0) was run?
**A.** 0%

**Q.** And the “Escherichia coli MCR-1 Af 45 MIC” value [2]?
**A.** 0.25 mg/L

**Q.** And the “Escherichia coli ATCC 25922 MIC” value [3]?
**A.** 0.125 mg/L

**Q.** What about the “Klebsiella pneumoniae SSI3010 MIC” value [4] of the same compound?
**A.** 0.25 mg/L

**Q.** With CC[C@H](C)[C@H](NC(=O)[C@@H]1C[C@@H](O)CN1C(=O)[C@@H](N)C(C)C)C(=O)N[C@H](C(=O)N[C@@H](Cc1ccc(O)cc1)C(=O)N[C@@H]1C(=O)N[C@@H]([C@@H](C)O)C(=O)N[C@@H](CCCNC(=N)N)C(=O)N[C@@H](CCN)C(=O)N[C@@H]([C@@H](C)O)C(=O)N[C@H](CCN)C(=O)N[C@@H](CCCCN)C(=O)N[C@H](C(=O)N[C@@H](CCN)C(=O)N[C@@H](CCCNC(=N)N)C(=O)N[C@@H](Cc2ccc(O)cc2)C(=O)O)CSSC1(C)C)[C@@H](C)O [Example 165] (HELM PEPTIDE1{V.[Hyp].I.T.Y.[Pen].T.R.[Dab].T.[NCC[C@@H](N[*:1])C(=O)[*:2]].K.C.[Dab].R.Y}$PEPTIDE1,PEPTIDE1,6:R3-13:R3$$$V2.0) as the compound, how does the “Hemolysis at 0.2 g/L” value [1] read?
**A.** 0%

**Q.** And the “Escherichia coli MCR-1 Af 45 MIC” value [2]?
**A.** 0.125 mg/L

**Q.** What about the “Escherichia coli ATCC 25922 MIC” value [3] of the same compound?
**A.** 0.125 mg/L

**Q.** What about the “Klebsiella pneumoniae SSI3010 MIC” value [4] of the same compound?
**A.** 0.5 mg/L

**Q.** Which results are given for CC[C@H](C)[C@H](NC(=O)[C@@H]1C[C@@H](O)CN1C(=O)[C@@H](N)C(C)C)C(=O)N[C@H](C(=O)N[C@@H](Cc1ccc(O)cc1)C(=O)N[C@@H]1C(=O)N[C@@H](CCCCN)C(=O)N[C@@H](CCCNC(=N)N)C(=O)N[C@@H](CCN)C(=O)N[C@@H]([C@@H](C)O)C(=O)N[C@H](CCN)C(=O)N[C@@H](CCCCN)C(=O)N[C@H](C(=O)N[C@@H](CCN)C(=O)N[C@@H](CCCNC(=N)N)C(=O)N[C@@H](Cc2ccc(O)cc2)C(=O)O)CSSC1(C)C)[C@@H](C)O [Example 166] (HELM PEPTIDE1{V.[Hyp].I.T.Y.[Pen].K.R.[Dab].T.[NCC[C@@H](N[*:1])C(=O)[*:2]].K.C.[Dab].R.Y}$PEPTIDE1,PEPTIDE1,6:R3-13:R3$$$V2.0)?
**A.** Hemolysis at 0.2 g/L [1]: 0%; Escherichia coli MCR-1 Af 45 MIC [2]: 0.125 mg/L; Escherichia coli ATCC 25922 MIC [3]: 0.25 mg/L; Klebsiella pneumoniae SSI3010 MIC [4]: 0.5 mg/L

**Q.** Which results are given for CC[C@H](C)[C@H](NC(=O)[C@@H]1C[C@@H](O)CN1C(=O)[C@@H](N)C(C)C)C(=O)N[C@H](C(=O)N[C@@H](Cc1ccc(O)cc1)C(=O)N[C@@H]1C(=O)N[C@@H](CC(N)=O)C(=O)N[C@@H](CCCNC(=N)N)C(=O)N[C@@H](CCCCN)C(=O)N[C@@H]([C@@H](C)O)C(=O)N[C@H](CCN)C(=O)N[C@@H](CCCCN)C(=O)N[C@H](C(=O)N[C@@H](CCN)C(=O)N[C@@H](CCCNC(=N)N)C(=O)N[C@@H](Cc2ccc(O)cc2)C(=O)O)CSSC1(C)C)[C@@H](C)O [Example 167] (HELM PEPTIDE1{V.[Hyp].I.T.Y.[Pen].N.R.K.T.[NCC[C@@H](N[*:1])C(=O)[*:2]].K.C.[Dab].R.Y}$PEPTIDE1,PEPTIDE1,6:R3-13:R3$$$V2.0)?
**A.** Hemolysis at 0.2 g/L [1]: 0%; Escherichia coli MCR-1 Af 45 MIC [2]: 0.125 mg/L; Escherichia coli ATCC 25922 MIC [3]: 0.25 mg/L; Klebsiella pneumoniae SSI3010 MIC [4]: 0.5 mg/L

**Q.** What does the source list for CC[C@H](C)[C@H](NC(=O)[C@@H]1C[C@@H](O)CN1C(=O)[C@@H](N)C(C)C)C(=O)N[C@H](C(=O)N[C@@H](Cc1ccc(O)cc1)C(=O)N[C@@H]1C(=O)N[C@@H](CC(N)=O)C(=O)N[C@@H](CCCNC(=N)N)C(=O)N[C@@H](CCCNC(=N)N)C(=O)N[C@@H]([C@@H](C)O)C(=O)N[C@H](CCN)C(=O)N[C@@H](CCCCN)C(=O)N[C@H](C(=O)N[C@@H](CCN)C(=O)N[C@@H](CCCNC(=N)N)C(=O)N[C@@H](Cc2ccc(O)cc2)C(=O)O)CSSC1(C)C)[C@@H](C)O [Example 168] (HELM PEPTIDE1{V.[Hyp].I.T.Y.[Pen].N.R.R.T.[NCC[C@@H](N[*:1])C(=O)[*:2]].K.C.[Dab].R.Y}$PEPTIDE1,PEPTIDE1,6:R3-13:R3$$$V2.0)?
**A.** Hemolysis at 0.2 g/L [1]: 0%; Escherichia coli MCR-1 Af 45 MIC [2]: 0.5 mg/L; Escherichia coli ATCC 25922 MIC [3]: 0.125 mg/L; Klebsiella pneumoniae SSI3010 MIC [4]: 0.25 mg/L

**Q.** What does the source list for CC[C@H](C)[C@@H]1NC(=O)[C@@H](CCN)NC(=O)[C@H]([C@@H](C)O)NC(=O)[C@H](CCN)NC(=O)[C@H](CCCNC(=N)N)NC(=O)[C@H](CC(N)=O)NC(=O)[C@@H](NC(=O)[C@H](Cc2ccc(O)cc2)NC(=O)[C@@H](NC(=O)[C@@H](NC(=O)[C@@H]2C[C@@H](O)CN2C(=O)[C@@H](N)C(C)C)[C@@H](C)CC)[C@@H](C)O)C(C)(C)SSC[C@@H](C(=O)N[C@@H](CCN)C(=O)N[C@@H](CCCNC(=N)N)C(=O)N[C@@H](Cc2ccc(O)cc2)C(=O)O)NC1=O [Example 169] (HELM PEPTIDE1{V.[Hyp].I.T.Y.[Pen].N.R.[Dab].T.[NCC[C@@H](N[*:1])C(=O)[*:2]].I.C.[Dab].R.Y}$PEPTIDE1,PEPTIDE1,6:R3-13:R3$$$V2.0)?
**A.** Hemolysis at 0.2 g/L [1]: 0%; Escherichia coli MCR-1 Af 45 MIC [2]: 0.25 mg/L; Escherichia coli ATCC 25922 MIC [3]: 0.5 mg/L; Klebsiella pneumoniae SSI3010 MIC [4]: 0.5 mg/L

**Q.** How did the “Hemolysis at 0.2 g/L” value [1] turn out when CC[C@H](C)[C@H](NC(=O)[C@@H]1C[C@@H](O)CN1C(=O)[C@@H](N)C(C)C)C(=O)N[C@H](C(=O)N[C@@H](Cc1ccc(O)cc1)C(=O)N[C@@H]1C(=O)N[C@@H](CC(N)=O)C(=O)N[C@@H](CCCNC(=N)N)C(=O)N[C@@H](CCN)C(=O)N[C@@H]([C@@H](C)O)C(=O)N[C@H](CCN)C(=O)N[C@@H](CO)C(=O)N[C@H](C(=O)N[C@@H](CCN)C(=O)N[C@@H](CCCNC(=N)N)C(=O)N[C@@H](Cc2ccc(O)cc2)C(=O)O)CSSC1(C)C)[C@@H](C)O [Example 170] (HELM PEPTIDE1{V.[Hyp].I.T.Y.[Pen].N.R.[Dab].T.[NCC[C@@H](N[*:1])C(=O)[*:2]].S.C.[Dab].R.Y}$PEPTIDE1,PEPTIDE1,6:R3-13:R3$$$V2.0) was run?
**A.** 0%

**Q.** And the “Escherichia coli MCR-1 Af 45 MIC” value [2]?
**A.** 0.5 mg/L

**Q.** What about the “Escherichia coli ATCC 25922 MIC” value [3] of the same compound?
**A.** 0.25 mg/L

**Q.** And the “Klebsiella pneumoniae SSI3010 MIC” value [4]?
**A.** 0.5 mg/L

**Q.** CC[C@H](C)[C@H](NC(=O)[C@@H]1C[C@@H](O)CN1C(=O)[C@@H](N)C(C)C)C(=O)N[C@H](C(=O)N[C@@H](Cc1ccc(O)cc1)C(=O)N[C@@H]1C(=O)N[C@@H](CC(N)=O)C(=O)N[C@@H](CCCNC(=N)N)C(=O)N[C@@H](CCN)C(=O)N[C@@H]([C@@H](C)O)C(=O)N[C@H](CCN)C(=O)N[C@@H](Cc2ccc(O)cc2)C(=O)N[C@H](C(=O)N[C@@H](CCN)C(=O)N[C@@H](CCCNC(=N)N)C(=O)N[C@@H](Cc2ccc(O)cc2)C(=O)O)CSSC1(C)C)[C@@H](C)O [Example 171] (HELM PEPTIDE1{V.[Hyp].I.T.Y.[Pen].N.R.[Dab].T.[NCC[C@@H](N[*:1])C(=O)[*:2]].Y.C.[Dab].R.Y}$PEPTIDE1,PEPTIDE1,6:R3-13:R3$$$V2.0) was tested. Which “Hemolysis at 0.2 g/L” value [1] did it give?
**A.** 0%

**Q.** And the “Escherichia coli MCR-1 Af 45 MIC” value [2]?
**A.** 0.5 mg/L

**Q.** And the “Escherichia coli ATCC 25922 MIC” value [3]?
**A.** 0.5 mg/L

**Q.** What about the “Klebsiella pneumoniae SSI3010 MIC” value [4] of the same compound?
**A.** 0.25 mg/L
